Source: patent US8445444B2, “Compositions and methods for diagnosing, treating, and preventing prostate conditions” (Phigenix, Inc., priority 2007, dated 2013)
Entries after “also recorded” stand apart in the source; their conditions may differ.

Experiments:
[1] = system: DU145; experiment: Quantitative RT-PCR of gene expression; format: cell-based, human; details: for PAX2 message levels: DU145, Losartan (FIG. 20A)
Description: Total RNA was isolated using the SV Total RNA Isolation System (Promega). Briefly, approximately 1×10^6 cells were harvested by trypsinizing, and rinsed in PBS. Cells were then lysed and total RNA was isolated by centrifugation through spin columns. Total RNA (0.5 μg per reaction) was reverse transcribed into cDNA utilizing Oligo (dT) 15 primer (Promega) and AMV Reverse Transcriptase II enzyme (500 units per reaction; Promega) for first strand synthesis and Tfl DNA Polymerase for second strand synthesis (500 units per reaction; Promega) as per the manufacturers' protocol, with identical control samples treated without RT enzyme. Typically, 50 pg of each cDNA was used per ensuing PCR reaction Two-step QRT-PCR was performed on cDNA generated using the MultiScribe Reverse Transcripatase from the TaqMan Reverse Transcription System and the SYBR Green PCR Master Mix (PE Biosystems). […] Reactions were performed in MicroAmp Optical 96-well Reaction Plate (PE Biosystems). Forty cycles of PCR were performed under standard conditions using an annealing temperature of 60° C. Quantification was determined by the cycle number where exponential amplification began (threshold value) and averaged from the values obtained from the triplicate repeats. There was an inverse relationship between message level and threshold value. In addition, GAPDH was used as a housekeeping gene to normalize the initial content of total cDNA. […] All reactions were carried out in triplicate.
Forty cycles of PCR were performed under standard conditions using an annealing temperature of 56° C. In addition, GAPDH was amplified as a housekeeping gene to normalize the initial content of total cDNA. […] All reactions were run three times in triplicate.

[2] = system: HPrEC; experiment: Quantitative RT-PCR of gene expression; format: cell-based, human; details: for decrease in DEFB1 expression compared to untreated hPrEC / increase in PAX2 expression compared to untreated hPrEC: 10 uM AngII; for PAX2 expression as % of PAX2 levels in PC3: AngII
Description: RNA Isolation and Quantitative RT-PCR: In order to verify changes in DEFB1 expression levels RNA was collected after 4 days of PAX2 siRNA treatment. Briefly, total RNA was isolated using the SV Total RNA Isolation System (Promega, Madison, Wis.) from approximately 1×10^6 cells harvested by trypsinizing. Here, cells were lysed and total RNA was isolated by centrifugation through spin columns. Total RNA (0.5 μg per reaction) from both sources was reverse transcribed into cDNA utilizing random primers (Promega). AMV Reverse Transcriptase II enzyme (500 units per reaction; Promega) was used for first strand synthesis and Tfl DNA Polymerase for second strand synthesis (500 units per reaction; Promega) as per the manufacturer's protocol. In each case, 50 pg of cDNA was used per ensuing PCR reaction. Two-step QRT-PCR was performed on cDNA generated using the MultiScribe Reverse Transcripatase from the TaqMan Reverse Transcription System and the SYBR Green PCR Master Mix (Applied Biosystems).
The primer pair for DEFB1 was generated from the published DEFB1 sequence (Accession No. U50930). Forty cycles of PCR were performed under standard conditions using an annealing temperature of 56° C. In addition, GAPDH was amplified as a housekeeping gene to normalize the initial content of total cDNA. DEFB1 expression was calculated as the relative expression ratio between DEFB1 and GAPDH and was compared in cells lines before and after siRNA knock-down of PAX2 expression. All reactions were run three times in triplicate.
QRT-PCR Analysis: Quantitative real-time RT-PCR was performed to verify changes in gene expression following PAX2 knockdown in PC3 and DU145 prostate cancer cell lines and the hPrEC normal prostate epithelial cells. Approximately 1×10^6 cells were harvested by trypsinizing and the cells were rinsed in PBS. Cells were then lysed and total RNA was isolated by centrifugation through spin columns using the SV Total RNA Isolation System (Promega). cDNA was generated (0.5 μg per reaction) by reverse transcription by Oligo (dT) 15 primer (Promega) and AMV Reverse Transcriptase II enzyme (500 units per reaction; Promega) for first strand synthesis and Tfl DNA Polymerase for second strand synthesis (500 units per reaction; Promega) as per the manufacturer's protocol. Typically, 50 pg of each cDNA was used per ensuing PCR reaction. Two-step QRT-PCR was performed on cDNA generated using the MultiScribe Reverse Transcripatase from the TaqMan Reverse Transcription System and the SYBR Green PCR Master Mix (PE Biosystems). Reactions were performed in MicroAmp Optical 96-well Reaction Plate (PE Biosystems). Forty cycles of PCR were performed under standard conditions using an annealing temperature of 60° C. Quantification was determined by the cycle number where exponential amplification began (threshold value) and averaged from the values obtained from the triplicate repeats. There was an inverse relationship between message level and threshold value. In addition, GAPDH was used as a housekeeping gene to normalize the initial content of total cDNA. Relative expression was calculated as the ratio between each genes and GAPDH. All reactions were carried out in triplicate.
RNA isolation and quantitative RT-PCR: QRT-PCR was performed as previously described (Gibson et al., 2007). Briefly, total RNA (0.5 μg per reaction) from tissue sections were reverse transcribed into cDNA utilizing random primers (Promega). Two-step QRT-PCR was performed on cDNA generated using the MultiScribe Reverse Transcriptase from the TaqMan Reverse Transcription System and the SYBR Green PCR Master Mix (Applied Biosystems, Foster City, Calif.). The primer pairs for hBD-1 and c-MYC were generated from the published sequences (Table 7). Forty cycles of PCR were performed under standard conditions using an annealing temperature of 56.4° C. for hBD-1 and c-MYC and 55° C. for PAX2. […]

[3] = system: DU145; experiment: Western analysis; format: cell-based, human; details: for phospho-JNK protein levels / PAX2 expression / phospho-PAX2 protein levels: DU145; for PAX2 expression / phospho-PAX2 protein levels: 5 uM Los, 25 uM U0126, 20 uM PD98059, 250 μM AICAR
Description: . Following a 15 minute incubation period at 4° C. on an orbital shaker, cell lysate were then collected and centrifuged for 10 minutes at 12000×g to pellet cellular debris. The protein-containing supernatant were then collected and quantitated. Next, 25 μg protein extract was loaded onto an 8-16% gradient SDS-PAGE (Novex). Following electrophoresis, proteins were transferred to PVDF membranes, and then blocked with 5% nonfat dry milk in TTBS (0.05% Tween 20 and 100 mM Tris-Cl) for 1 hour. Blots were then probed with rabbit anti-PAX2 primary antibody (Zymed, San Francisco, Calif.) at a 1:2000 dilution. After washing, the membranes were incubated with anti-rabbit antibody conjugated to horseradish peroxidase (HRP) (dilution 1:5000; Sigma), and signal detection was visualized using chemilluminescence reagents (Pierce) on an Alpha Innotech Fluorchem 8900. As a control, blots were stripped and reprobed with mouse anti-β-actin primary antibody (1:5000; Sigma-Aldrich) and HRP-conjugated anti-mouse secondary antibody (1:5000; Sigma-Aldrich) and signal detection was again visualized.
Following a 15-minute incubation period at 4° C. on an orbital shaker, cell lysates were collected and centrifuged for 10 minutes at 12000×g to pellet cellular debris. The protein-containing supernatant were then collected and quantitated. Next, 25 ug protein extract was loaded onto an 8-16% gradient SDS-PAGE (Novex). Following electrophoresis, proteins were transferred to PVDF membranes, and then blocked with 5% nonfat dry milk in TTBS (0.05% Tween 20 and 100 mM Tris-Cl) for 1 hour. Blots were then probed with primary antibody (anti-PAX2, -phospho-PAX2, -JNK, -phospho-JNK, -ERK1/2, or -phospho-ERK1/2) (Zymed, San Francisco, Calif.) at 1:1000-2000 dilutions. After washing, the membranes were incubated with anti-rabbit antibody conjugated to horseradish peroxidase (HRP) (dilution 1:5000; Sigma), and signal detection was visualized using chemilluminescence reagents (Pierce) on an Alpha Innotech Fluorchem 8900. As a control, blots were stripped and re-probed with mouse anti-β-actin primary antibody (1:5000; Sigma-Aldrich) and HRP-conjugated anti-mouse secondary antibody (1:5000; Sigma-Aldrich), and signal detection was again visualized.
. Following a 15-min incubation period at 4° C. on an orbital shaker, cell lysates were collected and centrifuged for 10 min at 12,000 g to pellet cellular debris. The protein-containing supernatant were then collected and quantitated. Next, 25 μg protein extract was loaded onto an 8-16% gradient SDS-PAGE (Novex). Following electrophoresis, proteins were transferred to PVDF membranes, and then blocked with 5% non-fat dry milk in TTBS (0.05% Tween 20 and 100 mM Tris-Cl) for 1 h. Blots were then probed with rabbit anti-PAX2 primary antibody (Zymed, San Francisco, Calif.) at a 1:1000 dilution. After washing, the membranes were incubated with anti-rabbit antibody conjugated to horseradish peroxidase (HRP) (dilution 1:5000; Sigma), and signal detection was visualized using chemiluminescence reagents (Pierce) on an Alpha Innotech Fluorchem 8900. As a control, blots were stripped and reprobed with mouse anti-β-actin primary antibody (1:5000; Sigma-Aldrich) and HRP-conjugated anti-mouse secondary antibody (1:5000; Sigma-Aldrich), and signal detection was again visualized.

[4] = system: DU145; experiment: [3H] thymidine incorporation proliferation; format: cell-based, human; details: for increase in proliferation: 72 hours; for effect of AngII on proliferation after Los pre-treatment: DU145, Los 30 min prior to AngII
Description: Reagents and Treatments: […] Thymidine Incorporation: Proliferation of cells was determined by [3H] thymidine […] ([3H] TdR) incorporation into DNA. 0.5×10^6 cells/well of suspension DU145 cells were plated in their appropriate media. Cells were incubated for 72 h with or without the presence of AngII at the indicated concentrations. Cells were exposed to 37 kBq/ml [methyl-3H] thymidine in the same medium for 6 h. The adherent cells were fixed by 5% trichloroacetic acid and lysed in SDS/NaOH lysis buffer overnight. Radioactivity was measured by Beckman LS3801 liquid scintillation counter (Canada). Suspension cell culture was harvested by cell harvester (Packard instrument Co., Meriden, Conn.), and radioactivity was measured by 1450 microbeta liquid scintillation counter (PerkinElmer Life Sciences).

[5] = system: DU145; experiment: Western analysis; format: cell-based, human; details: 5 uM Los, 25 uM U0126, 20 uM PD98059, 250 μM AICAR
[6] = system: human prostate cancer cells; details: xenograft models of human prostate cancer cells; cited from earlier work
[7] = AngII 72 and 96 hours (FIG. 25 legend)

AngII: Angiotensin II, major regulator of blood pressure, potent mitogen, binds AT1R and AT2R (DRVYIHPF)
PAX2 expression increase ([1]; DU145, 5 μM AngII, 72 hours (FIG. 21 legend)): 2 fold
PAX2 expression increase ([1]; DU145, 10 μM AngII, 72 hours (FIG. 21 legend)): > 3 fold
decrease in DEFB1 expression compared to untreated hPrEC ([2]; 72 hours): 35%
increase in PAX2 expression compared to untreated hPrEC ([2]; 72 hours): 66%
decrease in DEFB1 expression compared to untreated hPrEC ([2]; 96 hours): 50%
increase in PAX2 expression compared to untreated hPrEC ([2]; 96 hours): 79%
DEFB1 expression [2, 7]: reduced significantly
PAX2 expression [2, 7]: dramatic increases in PAX2 to levels similar to PC3 prostate cancer cells
PAX2 expression as % of PAX2 levels in PC3 ([2]; 72 hours): 77%
PAX2 expression as % of PAX2 levels in PC3 ([2]; 96 hours): 89%
phospho-JNK protein levels [3]: increased phosphor-JNK protein levels
PAX2 expression over time ([3]; DU145, AngII, 30 min to 48 hour (FIG. 19)): increased as early as 4 hours and persisted until 48 hours; also recorded: progressively increased over time
increase in proliferation ([4]; DU145, 5 μM AngII): 2 fold
increase in proliferation ([4]; DU145, 10 μM AngII): > 3 fold
increase in proliferation rate ([4]; DU145, AngII 5 or 10 uM): two- to three-fold increase

NC(=O)c1ncn([C@@H]2O[C@H](CO)[C@@H](O)[C@H]2O)c1N [AICAR, 5-Aminoimidazole-4-carboxamide-1-β-4-ribofuranoside]
PAX2 expression [3]: suppresses PAX2 protein expression; also recorded: suppressed PAX2 expression; also recorded: suppression of PAX2 pression expression
phospho-PAX2 protein levels [3]: suppression
phospho-STAT3 protein levels [5]: also suppressed

CCCCc1nc(Cl)c(CO)n1Cc1ccc(-c2ccccc2-c2nn[nH]n2)cc1 [Losartan]
PAX2 expression compared to untreated control ([1]; DU145, 5 uM Los, 72 hours): 50%
PAX2 message levels [1]: decreased by at least half
PAX2 message levels ([1]; listed as Los): significantly reduced PAX2 expression
ERK protein levels ([3]; DU145, 5 uM Los): no effect
phospho-ERK ([3]; DU145, 5 uM Los): suppresses phosphor-ERK 1/2
phospho-ERK ([3]; DU145, 5 uM Los, listed as Los): reduced the amount of phospho-ERK
PAX2 expression [3]: suppresses
phospho-PAX2 protein levels [3]: significant decrease or suppression
PAX2 expression ([3]; listed as Los): significant reduction of PAX2 expression
decrease in proliferation ([4]; DU145, 5 μM Losartan): 50%
effect of AngII on proliferation after Los pre-treatment [4]: blocked the effect of AngII on proliferation
effect of AngII on proliferation after Los pre-treatment ([4]; listed as Los): suppressed the effect of AngII on proliferation
phospho-STAT3 protein levels [5]: suppresses phospho-STAT3 protein expression
phospho-STAT3 protein levels ([5]; listed as Los): reduced phospho-STAT3 protein levels
tumor growth and vascularization [6]: reduce tumor growth and vascularization

Cc1cc(Cn2cnc3c2C[C@@H](C(=O)O)N(C(=O)C(c2ccccc2)c2ccccc2)C3)ccc1N(C)C [PD123319]
PAX2 expression increase ([1]; DU145, 5 uM PD123319, 48 hours): 7 fold
PAX2 expression increase ([1]; DU145, 5 uM PD123319, 96 hours): 8 fold

N#CC(=C(/N)Sc1ccccc1N)/C(C#N)=C(\N)Sc1ccccc1N [Drug U0126]
phospho-JNK protein levels [3]: did not decrease
PAX2 expression [3]: significant reduction of PAX2 expression
phospho-PAX2 protein levels [3]: significant decrease or suppression
phospho-STAT3 protein levels [5]: reduced phospho-STAT3 protein levels

COc1cccc(-c2cc(=O)c3ccccc3o2)c1N [PD98059]
PAX2 expression [3]: decreased PAX2
phospho-PAX2 protein levels [3]: significant decrease or suppression
phospho-STAT3 protein levels [5]: reduced phospho-STAT3 protein levels
